From patent US11407737B2, “Inhibitors of RAF kinases” (Kinnate Biopharma Inc., priority 2020, dated 2022)
pIC50: −log10 of the molar value. Where a name gives a salt, the structure may show the parent alone.

Molecular target: human RAF1 (Homo sapiens (Human), UniProt P04049)
Test: Protein kinase assay (radiometric 33P-ATP, MEK1 (K97R) substrate), RAF-1
Format: biochemical
Details: human MEK1 (K97R) substrate 3 micromolar, ATP 10 micromolar; 10-dose, 3-fold serial dilution starting at 10 micromolar; read-out: RAF-1 IC50
Description: Example 1: Kinase Assay Protocol
Assay platform was used to measure kinase/inhibitor interactions as described previously (Anastassiadis et al., 2011). In brief, for each reaction, kinase and substrate were mixed in a buffer containing 20 mM HEPES (pH 7.5), 10 mM MgCl2, 1 mM EGTA, 0.02% Brij35, 0.02 mg/mL BSA, 0.1 mM Na3VO4, 2 mM DTT, and 1% DMSO. All compounds were solubilized in DMSO. Compounds were then added to each reaction mixture via acoustic dispense using an ECHO 550 nanoliter dispenser. For human RAF1 testing, human MEK1 (K97R) was used as a substrate at a concentration of 3 micromolar, with a final ATP concentration of 10 micromolar. For human BRAF testing, human MEK1 (K97R) was used as a substrate at 1 micromolar concentration, with a final ATP concentration of 25 micromolar. […] After a 20-min incubation, ATP (Sigma-Aldrich, St. Louis, Mo. 63178) and [g33P] ATP (specific activity 10 microCi/microliter) purchased at PerkinElmer (Boston, Mass., 02118 Cat #BLU 003H250UC) were added at a final total concentration of […]. Reactions were carried out at room temperature for 2 hr and spotted onto P81 ion exchange cellulose chromatography paper (Reaction Biology). Filter paper was washed in 0.75% phosphoric acid to remove unincorporated ATP. The percent remaining kinase activity relative to a vehicle-containing (DMSO) kinase reaction was calculated for each kinase/inhibitor pair. IC50 values were calculated using Prism 5 (GraphPad).

Sequence of human RAF1 (P04049 whole entry): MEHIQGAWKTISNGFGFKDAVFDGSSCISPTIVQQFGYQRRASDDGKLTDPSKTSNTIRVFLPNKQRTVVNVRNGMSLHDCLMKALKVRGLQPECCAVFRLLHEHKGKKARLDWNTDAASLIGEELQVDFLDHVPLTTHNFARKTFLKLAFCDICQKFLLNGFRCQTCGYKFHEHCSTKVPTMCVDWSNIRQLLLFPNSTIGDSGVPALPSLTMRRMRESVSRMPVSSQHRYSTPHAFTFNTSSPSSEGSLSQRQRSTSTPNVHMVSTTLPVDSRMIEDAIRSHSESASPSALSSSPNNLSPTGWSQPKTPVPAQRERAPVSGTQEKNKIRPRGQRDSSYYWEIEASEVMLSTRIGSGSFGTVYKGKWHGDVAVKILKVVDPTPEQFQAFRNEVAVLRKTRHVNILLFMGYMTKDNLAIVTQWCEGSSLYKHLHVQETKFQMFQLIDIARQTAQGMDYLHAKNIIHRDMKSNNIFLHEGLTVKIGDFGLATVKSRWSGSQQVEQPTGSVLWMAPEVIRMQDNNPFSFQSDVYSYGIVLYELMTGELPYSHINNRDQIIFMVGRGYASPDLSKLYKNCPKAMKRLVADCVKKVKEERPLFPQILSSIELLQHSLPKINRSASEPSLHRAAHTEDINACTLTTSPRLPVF

Compound | pIC50
Cc1ccc(NC(=O)N2CC[C@@H](CC(F)(F)F)C2)cc1-c1cc(CCCO)nc(N2CCOCC2)c1 [Example 24, (3S)—N-[3-[2-(3-hydroxypropyl)-6-(morpholin-4-yl)pyridin-4-yl]-4-methylphenyl]-3-(2,2,2-trifluoroethyl)pyrrolidine-1-carboxamide] | > 9.00
Cc1ccc(NC(=O)N2CC[C@@H](CC(F)(F)F)C2)cc1-c1cc(-c2cnc(O)o2)nc(N2CCOCC2)c1 [Example 26, (3S)—N-[3-[2-(2-hydroxy-1,3-oxazol-5-yl)-6-(morpholin-4-yl)pyridin-4-yl]-4-methylphenyl]-3-(2,2,2-trifluoroethyl)pyrrolidine-1-carboxamide] | > 9.00
Cc1ccc(NC(=O)N2CC[C@@H](CC(F)(F)F)C2)cc1-c1cc(N2CCOCC2)nc(C(C)(C)O)c1 [Example 27, (3S)—N-[3-[2-(2-hydroxypropan-2-yl)-6-(morpholin-4-yl)pyridin-4-yl]-4-methylphenyl]-3-(2,2,2-trifluoroethyl)pyrrolidine-1-carboxamide] | 7.00 to 8.00
Cc1ccc(NC(=O)N2CC[C@@H](CC(F)(F)F)C2)cc1-c1cc(C2CCCNC2)nc(N2CCOCC2)c1 (stereo partly drawn) [Example 28, (3S)—N-[4-methyl-3-[2-(morpholin-4-yl)-6-(piperidin-3-yl)pyridin-4-yl]phenyl]-3-(2,2,2-trifluoroethyl)pyrrolidine-1-carboxamide] | 7.00 to 8.00
Cc1ccc(NC(=O)N2CC[C@@H](CC(F)(F)F)C2)cc1-c1cc(C2CCCN(C)C2)nc(N2CCOCC2)c1 (stereo partly drawn) [Example 29, (3S)—N-[4-methyl-3-[2-(1-methylpiperidin-3-yl)-6-(morpholin-4-yl)pyridin-4-yl]phenyl]-3-(2,2,2-trifluoroethyl)pyrrolidine-1-carboxamide] | 8.00 to 9.00
Cc1ccc(NC(=O)N2CC[C@@H](CC(F)(F)F)C2)cc1-c1cc(C2=CCN(C)CC2)nc(N2CCOCC2)c1 [Example 31, (3S)—N-[4-methyl-3-[1′-methyl-6-(morpholin-4-yl)-3′,6′-dihydro-2′H-[2,4′-bipyridin]-4-yl]phenyl]-3-(2,2,2-trifluoroethyl)pyrrolidine-1-carboxamide] | 7.00 to 8.00
Cc1ccc(NC(=O)N2CC[C@@H](CC(F)(F)F)C2)cc1-c1cc(CCO)nc(N2CCOCC2)c1 [Example 32, (3S)—N-[3-[2-(2-hydroxyethyl)-6-(morpholin-4-yl)pyridin-4-yl]-4-methylphenyl]-3-(2,2,2-trifluoroethyl)pyrrolidine-1-carboxamide] | 8.00 to 9.00
Cc1ccc(NC(=O)N2CC[C@@H](CC(F)(F)F)C2)cc1-c1cc(-c2cn[nH]c2)nc(N2CCOCC2)c1 [Example 33, (3S)—N-[4-methyl-3-[2-(morpholin-4-yl)-6-(1H-pyrazol-4-yl)pyridin-4-yl]phenyl]-3-(2,2,2-trifluoroethyl)pyrrolidine-1-carboxamide] | > 9.00
Cc1ccc(NC(=O)N2CC[C@@H](CC(F)(F)F)C2)cc1-c1cc(C2CCNC2)nc(N2CCOCC2)c1 (stereo partly drawn) [Example 34, (3S)—N-[4-methyl-3-[2-(morpholin-4-yl)-6-(pyrrolidin-3-yl)pyridin-4-yl]phenyl]-3-(2,2,2-trifluoroethyl)pyrrolidine-1-carboxamide] | > 9.00
Cc1ccc(NC(=O)N2CC[C@@H](CC(F)(F)F)C2)cc1-c1cc(C2CCN(C)C2)nc(N2CCOCC2)c1 (stereo partly drawn) [Example 38, (3S)—N-(4-methyl-3-(2-(1-methylpyrrolidin-3-yl)-6-morpholinopyridin-4-yl)phenyl)-3-(2,2,2-trifluoroethyl)pyrrolidine-1-carboxamide formate] | 8.00 to 9.00
Cc1ccc(NC(=O)N2CC[C@@H](CC(F)(F)F)C2)cc1-c1cc(-c2ccnc(N)c2)nc(N2CCOCC2)c1 [Example 40, (3S)—N-[3-[2′-amino-6-(morpholin-4-yl)-[2,4′-bipyridin]-4-yl]-4-methylphenyl]-3-(2,2,2-trifluoroethyl)pyrrolidine-1-carboxamide] | 8.00 to 9.00
Cc1ccc(NC(=O)N2CC[C@@H](CC(F)(F)F)C2)cc1-c1cc(-c2c[nH]nc2C)nc(N2CCOCC2)c1 [Example 47, (3S)—N-[4-methyl-3-[2-(3-methyl-1H-pyrazol-4-yl)-6-(morpholin-4-yl)pyridin-4-yl]phenyl]-3-(2,2,2-trifluoroethyl)pyrrolidine-1-carboxamide] | 8.00 to 9.00

Now from value to compound:

pIC50 | Compound
> 9.00 | COc1cc(-c2cc(-c3cc(NC(=O)N4CC[C@@H](CC(F)(F)F)C4)ccc3C)cc(N3CCOCC3)n2)ccn1 [Example 25, (3S)—N-[3-[2-methoxy-6-(morpholin-4-yl)-[2,4-bipyridin]-4-yl]-4-methylphenyl]-3-(2,2,2-trifluoroethyl)pyrrolidine-1-carboxamide]
8.00 to 9.00 | Cc1ccc(NC(=O)N2CC[C@@H](CC(F)(F)F)C2)cc1-c1cc(-c2ccnc(O)c2)nc(N2CCOCC2)c1 [Example 30, (3S)—N-[3-[2-hydroxy-6-(morpholin-4-yl)-[2,4-bipyridin]-4-yl]-4-methylphenyl]-3-(2,2,2-trifluoroethyl)pyrrolidine-1-carboxamide]
8.00 to 9.00 | Cc1ccc(NC(=O)N2CC[C@@H](CC(F)(F)F)C2)cc1-c1cc(C2=CCN(C)C2)nc(N2CCOCC2)c1 [Example 35, (3S)—N-[4-methyl-3-[2-(1-methyl-2,5-dihydropyrrol-3-yl)-6-(morpholin-4-yl)pyridin-4-yl]phenyl]-3-(2,2,2-trifluoroethyl)pyrrolidine-1-carboxamide]
> 9.00 | Cc1ccc(NC(=O)N2CC[C@@H](CC(F)(F)F)C2)cc1-c1cc(-c2ccn(C)n2)nc(N2CCOCC2)c1 [Example 36, (3S)—N-[4-methyl-3-[2-(1-methylpyrazol-3-yl)-6-(morpholin-4-yl)pyridin-4-yl]phenyl]-3-(2,2,2-trifluoroethyl)pyrrolidine-1-carboxamide]
8.00 to 9.00 | Cc1ccc(NC(=O)N2CC[C@@H](CC(F)(F)F)C2)cc1-c1cc(-c2cn(C)nc2C)nc(N2CCOCC2)c1 [Example 37, (3S)—N-[3-[2-(1,3-dimethylpyrazol-4-yl)-6-(morpholin-4-yl)pyridin-4-yl]-4-methylphenyl]-3-(2,2,2-trifluoroethyl)pyrrolidine-1-carboxamide]
8.00 to 9.00 | Cc1ccc(NC(=O)N2CC[C@@H](CC(F)(F)F)C2)cc1-c1cc(C2CCN(C)CC2)nc(N2CCOCC2)c1 [Example 39, (S)—N-(4-methyl-3-(2-(1-methylpiperidin-4-yl)-6-morpholinopyridin-4-yl)phenyl)-3-(2,2,2-trifluoroethyl)pyrrolidine-1-carboxamide formate]
8.00 to 9.00 | Cc1ccc(NC(=O)N2CC[C@@H](CC(F)(F)F)C2)cc1-c1cc(-c2cnn(C(F)F)c2)nc(N2CCOCC2)c1 [Example 41, (3S)—N-(3-[2-[1-(difluoromethyl)pyrazol-4-yl]-6-(morpholin-4-yl)pyridin-4-yl]-4-methylphenyl)-3-(2,2,2-trifluoroethyl)pyrrolidine-1-carboxamide]
8.00 to 9.00 | Cc1ccc(NC(=O)N2CC[C@@H](CC(F)(F)F)C2)cc1-c1cc(-c2cscn2)nc(N2CCOCC2)c1 [Example 42, (3S)—N-[4-methyl-3-[2-(morpholin-4-yl)-6-(1,3-thiazol-4-yl)pyridin-4-yl]phenyl]-3-(2,2,2-trifluoroethyl)pyrrolidine-1-carboxamide]
8.00 to 9.00 | Cc1ccc(NC(=O)N2CC[C@@H](CC(F)(F)F)C2)cc1-c1cc(-c2cnc(N)[nH]2)nc(N2CCOCC2)c1 [Example 43, (3S)—N-[3-[2-(2-amino-3H-imidazol-4-yl)-6-(morpholin-4-yl)pyridin-4-yl]-4-methylphenyl]-3-(2,2,2-trifluoroethyl)pyrrolidine-1-carboxamide]
8.00 to 9.00 | Cc1ccc(NC(=O)N2CC[C@@H](CC(F)(F)F)C2)cc1-c1cc(-c2cc(N)n(C)n2)nc(N2CCOCC2)c1 [Example 44, (3S)-N-[3-[2-(5-amino-1-methylpyrazol-3-yl)-6-(morpholin-4-yl)pyridin-4-yl]-4-methylphenyl]-3-(2,2,2-trif1uoroethyl)pyrrolidine-1-carboxamide]
8.00 to 9.00 | Cc1ccc(NC(=O)N2CC[C@@H](CC(F)(F)F)C2)cc1-c1cc(-c2ccnc(N)n2)nc(N2CCOCC2)c1 [Example 45, (3S)—N-[3-[2-(2-aminopyrimidin-4-yl)-6-(morpholin-4-yl)pyridin-4-yl]-4-methylphenyl]-3-(2,2,2-trifluoroethyl)pyrrolidine-1-carboxamide]
8.00 to 9.00 | Cc1ccc(NC(=O)N2CC[C@@H](CC(F)(F)F)C2)cc1-c1cc(-c2ccnc(C(F)F)c2)nc(N2CCOCC2)c1 [Example 46, (3S)—N-[3-[2′-(difluoromethyl)-6-(morpholin-4-yl)-[2,4′-bipyridin]-4-yl]-4-methylphenyl]-3-(2,2,2-trifluoroethyl)pyrrolidine-1-carboxamide]
> 9.00 | Cc1ccc(NC(=O)N2CC[C@@H](CC(F)(F)F)C2)cc1-c1cc(-c2cnn(C)c2C)nc(N2CCOCC2)c1 [Example 48, (3S)—N-[3-[2-(1,5-dimethylpyrazol-4-yl)-6-(morpholin-4-yl)pyridin-4-yl]-4-methylphenyl]-3-(2,2,2-trifluoroethyl)pyrrolidine-1-carboxamide]
